From US12398158B2, “Fluorescent GTP analogues and use” (CISBIO BIOASSAYS, priority 2019, dated 2025)

Assays:
[1] = test system: Gαi protein; experiment: TR-FRET (HTRF) binding test of GTP analog-donor / anti-Gαi antibody DSV36S-d2, HEK293 Delta Opioid membranes; details: HEK293 membranes expressing Delta Opioid GPCR and Gαi, 1 μg per well; analog 1 nM; absence vs presence of GTPγS 100 μM
Excerpt: (§1) • membrane preparations of cells expressing GPCRs and the G-alpha-i protein (Gαi) were purchased from Perkin Elmer or Euroscreen. The table below lists the cell backgrounds and references of the different samples used:
(§2) • the DSV36 antibody was generated by Cisbio Bioassays and is available rom Cisbio Bioassays on request (under the reference DSV36S). The antibody was labeled with the fluorescent probe d2 (red acceptor) compatible for TR-FRET detection. The DSV36S antibody binds at the switch II of the Gαi protein. • the GTP and GTPγS nucleotides were purchased from Sigma Aldrich (respective catalog references G8877 and G8634). • the 384-well, low volume, white plates with a white background were purchased from Greiner Bio One (catalog reference 784075). • the non-hydrolyzable/slowly hydrolyzable GTP analogs labeled with donor fluorophores of lanthanide complex type were synthesized at Cisbio Bioassays. Methods Preparation of the Reagents
Except for other specific mention, all the reagents were diluted in 50 mM Tris HCl pH 7.4, 10 mM MgCl2, 0.1% BSA, 10 mM NaCl, buffer. The membranes were prepared 4× to distribute 1 or 10 μg/well (amount specified in the key of each figure). The GTPγS nucleotide (non-specific signal condition) was prepared 6.67× to obtain a final concentration in the wells of 100 μM. The anti-Gαi antibody DSV36S-d2 used for the detection was prepared 4× to target the final concentration in the wells of 10 nM. […]
(§3) The non-specific signal (background fluorescence noise) was measured with wells containing an excess of GTPγS (10 or 100 μM).
(§4) The plates were incubated at 21° C. for 20 h and then the HTRF signal was measured on the PHERAstar reader (BMG Labtech) with the following configuration: • Module: HTRF (Excitation 337 nm, Emission 665 nm and 620 nm) • Excitation: laser, 40 flashes or lamp, 100 flashes • Reading window: delays: 60 μs-Integration: […] Signal Processing
(§5) From the raw signals at 665 nm and 620 nm, the HTRF Ratio was calculated according to the following formula: HTRF Ratio=[(Signal at 665 nm)/(Signal at 620 nm)]×10 000 Test Format […]

[2] = test system: Gαi protein; experiment: TR-FRET (HTRF) binding test of GTP analog-donor / anti-Gαi antibody DSV36S-d2, CHO-K1 Dopamine D2S membranes; details: CHO-K1 membranes expressing Dopamine D2S GPCR and Gαi, 10 μg per well; analog 6 nM; absence vs presence of GTPγS 100 μM
Excerpt: as §1
• the DSV36 antibody was generated by Cisbio Bioassays and is available rom Cisbio Bioassays on request (under the reference DSV36S). The antibody was labeled with the fluorescent probe d2 (red acceptor) compatible for TR-FRET detection. […]
as §3, §4, §5

[3] = test system: Gαi protein; experiment: TR-FRET (HTRF) binding test of GTP analog-donor / anti-Gαi antibody DSV36S-d2, CHO-K1 Delta Opioid membranes
Excerpt: as §1, §2
Except for other specific mention, all the reagents were diluted in 50 mM Tris HCl pH 7.4, 10 mM MgCl2, 0.1% BSA, 10 mM NaCl, buffer. The membranes were prepared 4× to distribute 1 or 10 μg/well (amount specified in the key of each figure). The GTPγS nucleotide (non-specific signal condition) was prepared 6.67× to obtain a final concentration in the wells of 100 μM. The anti-Gαi antibody DSV36S-d2 used for the detection was prepared 4× to target the final concentration in the wells of 10 nM. The non-hydrolyzable/slowly hydrolyzable GTP analogs labeled with fluorescent donor probes (lanthanide complexes) were prepared 4× to target the final concentrations in the wells mentioned in the keys of each figure.
• Membranes expressing GPCR and the G protein: 5 μl • GTPγS buffer or nucleotide (for the non-specific signal condition): 3 μl • Non-hydrolyzable/slowly hydrolyzable GTP analog-donor: 5 μl • Anti-Gαi antibody-acceptor (DSV36S-d2): 5 μl • Buffer: 2 μl
as §3, §4
From the raw signals at 665 nm and 620 nm, the HTRF Ratio was calculated according to the following formula: HTRF Ratio=[(Signal at 665 nm)/(Signal at 620 nm)]×10 000 Test Format
FIG. 2 illustrates the test format used to detect the binding of the compounds of formula (I) to the G protein. […] When the two FRET partners (test compound and anti-Gα protein antibody) bind to the same Gα protein, a FRET signal appears (left part of the figure: “Total Signal”) and is distinguished from the non-specific signal (background noise corresponding to the right part of the figure: “Non-Specific Signal”), which comprises a large excess of unlabeled GTPγS (displacement of the fluorescent GTP analog). […]
GTPgN-octyl-C2 was used at a final concentration of 6 nM in the wells. The membranes were incubated in the absence or in the presence of a large excess of GTPγS (100 μM). […]
GTPgN-octyl-C2 was used at a final concentration of 2 or 6 nM in the wells. The membranes were incubated in the absence or in the presence of a large excess of GTPγS (100 μM).

[4] = CHO-K1 membranes expressing Delta Opioid GPCR and Gαi, 10 μg per well, analog 6 nM, absence vs presence of GTPγS 100 μM

Row | Molecule | HTRF Ratio total signal/non-specific signal [1] | HTRF Ratio total signal/non-specific signal [3, 4] | further results
1 | Nc1nc2c(ncn2[C@@H]2O[C@H](COP(=O)(O)OP(=O)(O)OP(=O)(O)NCCCCCCCCNc3nc(Cl)nc(Nc4ccc(-c5cc(-c6cccc(CN(CC(=O)O)CC(=O)O)n6)nc(-c6cccc(CN(CC(=O)O)CC(=O)O)n6)c5)cc4)n3)C(O)[C@@H]2O)c(=O)[nH]1 (some centres unmarked) [GTPgN-octyl-C3, GTP-gamma-N-octyl-C3] | 1.4 | – | –
2 | Nc1nc2c(ncn2[C@@H]2O[C@H](COP(=O)(O)OP(=O)(O)OP(=O)(O)Nc3ccc(-c4cc(-c5cccc(CN(CC(=O)O)CC(=O)O)n5)nc(-c5cccc(CN(CC(=O)O)CC(=O)O)n5)c4)cc3)C(O)[C@@H]2O)c(=O)[nH]1 (some centres unmarked) [GTPgN—C3, GTP-gamma-N—C3] | 1.7 | – | –
3 | GTP-gamma-N-octyl-C2 [GTPgN-octyl-C2] | – | 12.4 | HTRF Ratio total signal/non-specific signal [2]: 3.8; signal amplitude (S/N), effect of amount of membrane ([3]; CHO-K1 Delta Opioid membranes increased from 1 to 10 μg per well, FIG. 11A): increase in the signal amplitude (S/N) is observed; amplitude of the signal (S/N), effect of analog concentration ([3]; CHO-K1 Delta Opioid membranes, GTPgN-octyl-C2 increased from 2 to 6 nM, FIG. 11B): increase in the amplitude of the signal (S/N) is observed
4 | GTP-gamma-N-octyl-C11 [GTPgN-octyl-C11] | – | 7.6 | –
5 | GTP-gamma-N-octyl-thiosuccinimidyl-C2 [GTPgN-octyl-thiosuccinimidyl-C2] | – | – | HTRF Ratio total signal/non-specific signal ([3]; CHO-K1 Delta Opioid membranes 10 μg per well, analog 7.5 nM, buffer 60 mM MgCl2, 150 mM NaCl, presence vs absence of membrane preparation): 2.8
6 | GTP-gamma-N—C2 [GTPgN—C2] | – | 16.6 | –
7 | GTP-gamma-O-hexyl-C2 [GTPgO-hexyl-C2] | – | 7.1 | –
8 | GTP-gamma-O-hexyl-C3 [GTPgO-hexyl-C3] | 1.3 | – | –
